Measured values: publication PMC5263201, “GABAA receptor occupancy by subtype selective GABAAα2,3 modulators: PET studies in humans” (Psychopharmacology, 2016)
Values joined by “and” are separate entries in the source; they are usually repeats but may differ in a detail not shown here. Identical values can stand only once. Like-named read-outs stand apart in the source and are kept apart here.

Columns and labels:
[1] = tested on: GABAA receptors (benzodiazepine binding site); test: PET with [11C]flumazenil (HRRT): GABAA receptor occupancy; type: in vivo, human; details: for Occupancy (%) CER: cerebellum; for Occupancy (%) CER / Occupancy (%) OC / Occupancy (%) PUT / Occupancy (%) AMG: 1 h after drug administration; for Occupancy (%) OC: occipital cortex; for Occupancy (%) PUT: putamen; for Occupancy (%) AMG: amygdala
Protocol: Two separate open-label phase I PET studies were conducted in 2008–2009.
The initial study design included two sequential panels, with two subjects in each. The first panel was intended to obtain initial receptor occupancy values, to be used for dose selection in the second panel. […] The studies followed an adaptive design, i.e., doses and PET measurements were adjusted depending on the results of preceding measurements. […] To optimize quantification of the relationship between AZ6280 exposure and receptor occupancy, the number of subjects with the highest 40 mg dose was increased (Fig. 1).
The head of the subject was fixed using individual plaster helmet. A sterile physiological phosphate buffer (pH 7.4) solution containing [^11C]flumazenil was injected intravenously as a bolus during 2 s, immediately followed by flush with 10 ml saline. The injected radioactivity for [^11C]flumazenil was in the range of 330–350 MBq, (340 (9) MBq, mean, SD) in the study 1 and in the range of 317–363 MBq (335 (16) MBq) in the study 2. The specific radioactivity of the radioligand at time of injection ranged from 310 to 1465 GBq/μmol (730 (414) GBq/μmol, mean, SD) and from 464 to 1879 GBq/μmol (977 (424) GBq/μmol, mean, SD), for study 1 and study 2, respectively.
PET examinations were performed over 63 min (HRRT; Siemens/CTI). List mode data were reconstructed using the ordinary Poisson 3D ordered subset estimation maximization algorithm, with 10 iterations and 16 subsets including modeling of the point spread function (Varrone et al. [2009]) into a 4D PET image containing 33 consecutive time frames (9 × 10 s, 2 × 15 s, 3 × 20 s, 4 × 30 s, 4 × 60 s, 4 × 180 s, 7 × 360 s) with a 3D array of 256 × 256 × 207 voxels having a size of 1.22 × 1.22 × 1.22 mm.
The anatomical brain regions were delineated manually on the MR images using in-house image analysis software. The regions included cortical and striatal subregions, thalamus, cerebellum, limbic regions, pons, and whole brain. The following four regions were selected in the final analysis: The occipital cortex and cerebellum were chosen because of the highest GABAA receptor binding by [^11C]flumazenil and good imaging statistics and preferential distribution of α1/α2 receptor subtypes; the amygdala was chosen because of its role in the brain circuits involved in anxiety and putamen for preferential α1/α2/α3 versus α5 receptor subtypes (Lingford-Hughes et al. [2002]; Fatemi et al. [2013]; Waldvogel and Faull [2015]). For the pons, the ROI was drawn on horizontal projection on the six central slices. […] The concentration of radioactivity in each ROI, calculated for each sequential time frame and corrected for ^11C decay, was plotted versus time (TACs).
An index of neuronal GABAA receptor density or binding potential (BPND) was calculated using the simplified reference tissue model (Lammertsma and Hume [1996]) and pons as a reference region. The calculated receptor occupancy (%) was then correlated to drug exposure according to the following equation:1 Occupancy=Occmax×Cav,PET/Ki,plasma+Cav,PET
where Occmax is the maximal occupancy induced by drug, C av,PET is the total drug plasma concentration, and K i,plasma is the inhibition constant corresponding to the drug plasma concentration required for half-maximum receptor occupancy. Non-linear least squares curve fitting of the relationship between drug plasma concentration and receptor occupancy was performed using Matlab R2007b (http://de.mathworks.com). Regional data were fitted simultaneously to obtain a single estimate of K i,plasma and regionally different estimates of Occmax. Best fit estimate and confidence interval (95% CI) were obtained on the logarithmic scale.

[2] = Plasma pharmacokinetics after single oral doses in the PET studies; type: in vivo, human; details: for C av,PET: average plasma concentration at time of PET
Protocol: Venous blood samples for determination of drug plasma concentrations were collected at approximately 15 min before [^11C]flumazenil injection and at 15 and 30 min and 3, 4, 6, 8, 10, 12, 16, 24, 36, and 48 h after drug administration, including three samples during PET measurement, at 1, 1.30, and 2 h after drug administration.
Calculations of the pharmacokinetic parameters included the maximum plasma concentration (C max), the time to the maximum plasma concentration (T max), and the average drug plasma concentration during the PET measurement (C av,PET) (division of the partial area corresponding to the start and end times of PET assessment, AUCPET, by the duration of the PET measurement). The pharmacokinetic calculations were performed using non-compartmental analysis using WinNonlin™, Pharsight Corporation.

[3] = Safety and tolerability in the PET studies; type: in vivo, human
From the text: Safety and tolerability assessments included records of adverse events, vital signs (blood pressure, heart rate), Allen’s test, ECG, clinical chemistry, hematology assessments, and urinalysis.

human MT1 receptor = human MT1 receptor (Homo sapiens, UniProt P48039); test: MT1 receptor GTPγS studies; type: biochemical
Chain of human MT1 receptor (P48039 whole entry): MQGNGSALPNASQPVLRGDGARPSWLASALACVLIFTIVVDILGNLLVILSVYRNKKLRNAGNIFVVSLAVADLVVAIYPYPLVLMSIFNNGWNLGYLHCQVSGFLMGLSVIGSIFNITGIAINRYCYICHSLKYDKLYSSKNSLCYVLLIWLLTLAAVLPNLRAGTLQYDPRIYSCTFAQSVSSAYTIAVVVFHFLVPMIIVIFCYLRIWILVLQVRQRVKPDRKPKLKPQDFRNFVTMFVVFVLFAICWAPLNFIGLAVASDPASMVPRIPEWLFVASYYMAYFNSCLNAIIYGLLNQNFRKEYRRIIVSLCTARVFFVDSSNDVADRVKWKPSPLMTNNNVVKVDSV

[4] = tested on: approximately 160 different ligand binding assays; test: Battery of approximately 160 different ligand binding assays at 10 μM; details: active = ≥50% inhibition with an IC50 <1µM
[5] = Brain exposure in animals; type: in vivo
[6] = VAS alertness-sedation, Modified Wilson Sedation Scale, DSST; ref NCT00681317 and NCT00681915; cited from earlier work
[7] = parameters: method as in Chen et al. 2014, 2015; details: neurophysiological test battery; ref Chen et al. 2014, 2015; cited from earlier work
[8] = AZD7325 single oral dose 0.2 mg

CCCNC(=O)c1nnc2c(-c3c(F)cccc3OC)cccc2c1N [AZD7325]
calculated GABAA receptor occupancy at the highest doses ([1]; 20–30 mg AZD7325, occipital cortex and cerebellum): over 80% | Occupancy (%) CER [1, 8]: −5% and 3% | Occupancy (%) OC [1, 8]: −8% and 0.5% | Occupancy (%) CER ([1]; AZD7325 single oral dose 1 mg): 43% and 25% | Occupancy (%) CER ([1]; AZD7325 single oral dose 2 mg): 45% and 60% | Occupancy (%) OC ([1]; AZD7325 single oral dose 2 mg): 24% and 42% | Occupancy (%) PUT ([1]; AZD7325 single oral dose 2 mg): 28% and 26% | Occupancy (%) AMG ([1]; AZD7325 single oral dose 5 mg): 16% and 26% | Occupancy (%) CER ([1]; AZD7325 single oral dose 5 mg): 85% and 82% | Occupancy (%) OC ([1]; AZD7325 single oral dose 5 mg): 77% and 67% | Occupancy (%) PUT ([1]; AZD7325 single oral dose 5 mg): 40% and 37% | Occupancy (%) CER ([1]; AZD7325 single oral dose 20 mg): 77% and 95% | Occupancy (%) OC ([1]; AZD7325 single oral dose 20 mg): 75% and 85% | Occupancy (%) PUT ([1]; AZD7325 single oral dose 20 mg): 41% and 46% | Occupancy (%) AMG ([1]; AZD7325 single oral dose 30 mg): 37% | Occupancy (%) CER ([1]; AZD7325 single oral dose 30 mg): 89% | Occupancy (%) OC ([1]; AZD7325 single oral dose 30 mg): 82% | Occupancy (%) PUT ([1]; AZD7325 single oral dose 30 mg): 52% | C av,PET [2, 8]: 1.74 nmol/L and 2.93 nmol/L | Cmax ([2]; AZD7325 single oral dose 0.2 mg, individual subjects, read-out: C max): 4.12 nM | T max ([2]; AZD7325 single oral dose 1 mg, individual subjects): 1.0 h | Cmax ([2]; AZD7325 single oral dose 1 mg, individual subjects, read-out: C max): 5.19 nM and 12.8 nM | T max ([2]; AZD7325 single oral dose 2 mg, individual subjects): 1.1 h | Cmax ([2]; AZD7325 single oral dose 2 mg, individual subjects, read-out: C max): 5.19 nM and 21.4 nM | C av,PET ([2]; AZD7325 single oral dose 5 mg): 46.28 nmol/L and 39.22 nmol/L | T max ([2]; AZD7325 single oral dose 5 mg, individual subjects): 1.0 h | Cmax ([2]; AZD7325 single oral dose 5 mg, individual subjects, read-out: C max): 44 nM | Cmax ([2]; AZD7325 single oral dose 20 mg, individual subjects, read-out: C max): 302 nM | C av,PET ([2]; AZD7325 single oral dose 30 mg): 265.25 nmol/L | Cmax ([2]; human, plasma, oral, range over all doses and subjects, read-out: range for peak exposures, Cmax): 0.81 to 109 ng/mL | Tmax ([2]; human, plasma, po, 0.2 mg, AZD7325 single oral dose 0.2 mg, individual subjects): 0.5 h | Cmax ([2]; human, plasma, po, 0.2 mg, AZD7325 single oral dose 0.2 mg, individual subjects, read-out: C max): 2.29 nM | Tmax ([2]; human, plasma, po, 1 mg, AZD7325 single oral dose 1 mg, individual subjects): 1.8 h | Tmax ([2]; human, plasma, po, 2 mg, AZD7325 single oral dose 2 mg, individual subjects): 1.3 h | Cmax ([2]; human, plasma, po, 5 mg, AZD7325 single oral dose 5 mg, individual subjects, read-out: C max): 50.2 nM | Tmax ([2]; human, plasma, po, 20 mg, AZD7325 single oral dose 20 mg, individual subjects): 3 h | Cmax ([2]; human, plasma, po, 20 mg, AZD7325 single oral dose 20 mg, individual subjects, read-out: C max): 213 nM | Tmax ([2]; human, plasma, po, 30 mg, AZD7325 single oral dose 30 mg, individual subject): 2.2 h | Cmax ([2]; human, plasma, po, 30 mg, AZD7325 single oral dose 30 mg, individual subject, read-out: C max): 308 nM | receptor occupancy at the doses/exposure at which adverse events were reported ([3]; AZD7325 5, 20 and 30 mg, AZD6280 20 mg and above): > 70% | high receptor occupancy reached without obvious sedative effects ([3]; PET studies): > 70% | CNS-related AEs ([3]; reported by three subjects at 20 and 30 mg and in one subject both at 20 and at 5 mg): dizziness, feeling hot, anhedonia, and hypoesthesia | Emax (human MT1 receptor): 90% | activity in the battery of ligand binding assays [4]: only assays in which either compound was active were the melatonin Type 1 and Type 2 receptors | brain exposure [5]: good brain exposure | relationship between dose and alertness or cognitive performance [6]: no significant relationship | receptor occupancy up to which no cognitive or hypnotic side effects were observed [7]: up to 80%
